The target in this assay is T1, MAGL (Homo sapiens, UniProt Q99685).
T1 sequence (Q99685 1-303): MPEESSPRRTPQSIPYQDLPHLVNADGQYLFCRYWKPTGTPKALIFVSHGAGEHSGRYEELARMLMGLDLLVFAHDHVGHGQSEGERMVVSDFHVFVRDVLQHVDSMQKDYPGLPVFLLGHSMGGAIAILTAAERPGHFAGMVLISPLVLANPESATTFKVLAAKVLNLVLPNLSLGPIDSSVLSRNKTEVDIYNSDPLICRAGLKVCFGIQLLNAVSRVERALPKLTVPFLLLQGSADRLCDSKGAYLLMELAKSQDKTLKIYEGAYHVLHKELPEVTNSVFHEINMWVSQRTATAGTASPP
In words: 2-AG assay (MAGL inhibitory activity, hydrolysis of 2-arachidonoylglycerol to arachidonic acid followed by mass spectrometry). In kind it is biochemical. To be noted: 8 μM 2-arachidonoylglycerol, 15 min pre-incubation, 30 min incubation at RT, RapidFire MS readout. The procedure, abridged:
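Arachidonic acid released from 8 μM 2-arachidonoylglycerol was quantified by online SPE triple-quadrupole MS (negative ESI, 303.1→259.1), normalised to d8-arachidonic acid internal standard. Reaction ran 30 min at RT after 15 min RT compound pre-incubation with […] MAGL in TRIS/EDTA/Tween-20 buffer, 2.5% DMSO.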
As a reminder, the IC50 is the concentration that inhibits the measured activity by half. Higher therefore signals weaker potency. On to `O=C(N1CC2(CC(n3cnc(C4CC4)n3)C2)C1)N1CC2(CN(Cc3ccc(F)cc3F)C2)C1` [Example 234, [6-(3-cyclopropyl-1,2,4-triazol-1-yl)-2-azaspiro[3.3]heptan-2-yl]-[6-[(2,4-difluorophenyl)methyl]-2,6-diazaspiro[3.3]heptan-2-yl]methanone], for which the IC50 amounted to 5.4 nM. In other words, the single-digit nanomolar range.
To `O=C(N1CC(Oc2cncc(C3CC3)c2Cl)C1)N1CC2(CC(n3cnc(C4CC4)n3)C2)C1` [Example 235, [3-[(4-chloro-5-cyclopropyl-3-pyridyl)oxy]azetidin-1-yl]-[6-(3-cyclopropyl-1,2,4-triazol-1-yl)-2-azaspiro[3.3]heptan-2-yl]methanone] belongs 6 nM.
The molecule `O=C(N1CC2(CC(n3cnc(C4CC4)n3)C2)C1)N1CC2(C1)CN(S(=O)(=O)c1ccc(F)c(C(F)(F)F)c1)C2` [Example 236, [6-(3-cyclopropyl-1,2,4-triazol-1-yl)-2-azaspiro[3.3]heptan-2-yl]-[2-[4-fluoro-3-(trifluoromethyl)phenyl]sulfonyl-2,6-diazaspiro[3.3]heptan-6-yl]methanone] displayed an IC50 of 6.2 nM.
As for `O=C(N1CC2(CC(n3cnc(C4CC4)n3)C2)C1)N1CC2(C1)CN(S(=O)(=O)N1CCCCC1)C2` [Example 237, [6-(3-cyclopropyl-1,2,4-triazol-1-yl)-2-azaspiro[3.3]heptan-2-yl]-[2-(1-piperidylsulfonyl)-2,6-diazaspiro[3.3]heptan-6-yl]methanone], the figure is 6.4 nM; as for `CS(=O)(=O)c1cc(F)ccc1OC1CCC2(CC1)CN(C(=O)N1CC3(CC(n4cnc(C5CC5)n4)C3)C1)C2` [Example 238, [6-(3-cyclopropyl-1,2,4-triazol-1-yl)-2-azaspiro[3.3]heptan-2-yl]-[7-(4-fluoro-2-mesyl-phenoxy)-2-azaspiro[3.5]nonan-2-yl]methanone], 6.5 nM; as for `CC(C)(C)CS(=O)(=O)N1CC2(CN(C(=O)N3CC4(CC(n5cnc(C6CC6)n5)C4)C3)C2)C1` [Example 239], 6.6 nM.
To `N#Cc1ccccc1S(=O)(=O)N1CC2(CN(C(=O)N3CC4(CC(n5cnc(C6CC6)n5)C4)C3)C2)C1` [Example 240] belongs 6.8 nM; to `Cc1ccc(OC2CN(C(=O)N3CC4(CC(n5cnc(C6CC6)n5)C4)C3)C2)c(F)c1` [Example 241, (6-(3-cyclopropyl-1H-1,2,4-triazol-1-yl)-2-azaspiro[3.3]heptan-2-yl)(3-(2-fluoro-4-methylphenoxy)azetidin-1-yl)methanone], 8.7 nM.
To `O=C(N1CC2(CC(n3cnc(C4CC4)n3)C2)C1)N1CC2(C1)CN(S(=O)(=O)c1c(F)cc(F)cc1F)C2` [Example 242, [6-(3-cyclopropyl-1,2,4-triazol-1-yl)-2-azaspiro[3.3]heptan-2-yl]-[2-(2,4,6-trifluorophenyl)sulfonyl-2,6-diazaspiro[3.3]heptan-6-yl]methanone] belongs 8.8 nM; to `O=C(N1CC2(CC(n3cnc(C4CC4)n3)C2)C1)N1CC2(C1)CN(S(=O)(=O)c1cccnc1Cl)C2` [Example 243, [2-[(2-chloro-3-pyridyl)sulfonyl]-2,6-diazaspiro[3.3]heptan-6-yl]-[6-(3-cyclopropyl-1,2,4-triazol-1-yl)-2-azaspiro[3.3]heptan-2-yl]methanone], 8.8 nM; to `O=C(N1CC2(CC(n3cnc(C4CC4)n3)C2)C1)N1CC2(C1)CN(S(=O)(=O)CC1CCCCC1)C2` [Example 244, [2-(cyclohexylmethylsulfonyl)-2,6-diazaspiro[3.3]heptan-6-yl]-[6-(3-cyclopropyl-1,2,4-triazol-1-yl)-2-azaspiro[3.3]heptan-2-yl]methanone], 9 nM.
In turn, `COc1cccc(S(=O)(=O)N2CC3(CN(C(=O)N4CC5(CC(n6cnc(C7CC7)n6)C5)C4)C3)C2)c1` [Example 245, [6-(3-cyclopropyl-1,2,4-triazol-1-yl)-2-azaspiro[3.3]heptan-2-yl]-[2-(3-methoxyphenyl)sulfonyl-2,6-diazaspiro[3.3]heptan-6-yl]methanone] came in with an IC50 of 9.9 nM.
As for `O=C(N1CC(CNS(=O)(=O)c2cccc(C(F)(F)F)c2)C1)N1CC2(CC(n3cnc(C4CC4)n3)C2)C1` [Example 246, N-[[1-[6-(3-cyclopropyl-1,2,4-triazol-1-yl)-2-azaspiro[3.3]heptane-2-carbonyl]azetidin-3-yl]methyl]-3-(trifluoromethyl)benzenesul fonamide], the figure is 12.2 nM.
The molecule `O=C(N1CC2(CC(n3cnc(C4CC4)n3)C2)C1)N1CC2(C1)CN(S(=O)(=O)NCC1(C(F)(F)F)CC1)C2` [Example 247, 6-[6-(3-cyclopropyl-1,2,4-triazol-1-yl)-2-azaspiro[3.3]heptane-2-carbonyl]-N-[[1-(trifluoromethyl)cyclopropyl]methyl]-2,6-diazaspiro[3.3]heptane-2-sulfonamide] returned an IC50 of 12.2 nM.
To `O=C(N1CC(Oc2ccc(C(F)(F)F)nn2)C1)N1CC2(CC(n3cnc(C4CC4)n3)C2)C1` [Example 248, [6-(3-cyclopropyl-1,2,4-triazol-1-yl)-2-azaspiro[3.3]heptan-2-yl]−[3-[6-(trifluoromethyl)pyridazin-3-yl]oxyazetidin-1-yl]methanone] belongs 13.4 nM; to `CC(Oc1cnn(C2CN(C(=O)N3CC4(CC(n5cnc(C6CC6)n5)C4)C3)C2)c1)C(F)(F)F` (stereo not drawn) [Example 249, [6-(3-cyclopropyl-1,2,4-triazol-1-yl)-2-azaspiro[3.3]heptan-2-yl]-[3-[4-(2,2,2-trifluoro-1-methyl-ethoxy)pyrazol-1-yl]azetidin-1-yl]methanone], 14.4 nM; to `O=C(N1CC2(CC(n3cnc(C4CC4)n3)C2)C1)N1CC2(C1)CN(S(=O)(=O)c1cccc3nonc13)C2` [Example 250, [2-(2,1,3-benzoxadiazol-4-ylsulfonyl)-2,6-diazaspiro[3.3]heptan-6-yl]-[6-(3-cyclopropyl-1,2,4-triazol-1-yl)-2-azaspiro[3.3]heptan-2-yl]methanone], 15.1 nM.
To `COc1ccccc1S(=O)(=O)N1CC2(CN(C(=O)N3CC4(CC(n5cnc(C6CC6)n5)C4)C3)C2)C1` [Example 251, [6-(3-cyclopropyl-1,2,4-triazol-1-yl)-2-azaspiro[3.3]heptan-2-yl]-[2-(2-methoxyphenyl)sulfonyl-2,6-diazaspiro[3.3]heptan-6-yl]methanone] belongs 15.5 nM.
Regarding `O=C(N1CC(c2ccc(C3(c4nnn[nH]4)CC3)cc2)C1)N1CC2(CC(n3cnc(C4CC4)n3)C2)C1` [Example 252, [6-(3-cyclopropyl-1,2,4-triazol-1-yl)-2-azaspiro[3.3]heptan-2-yl]-[3-[4-[1-(1H-tetrazol-5-yl)cyclopropyl]phenyl]azetidin-1-yl]methanone], half-maximal inhibition (IC50) was put at 16.1 nM.
Molecule `O=C(N1CCC(CNS(=O)(=O)c2ccc(C(F)(F)F)cc2)CC1)N1CC2(CC(n3cnc(C4CC4)n3)C2)C1` [Example 253] showed an IC50 of 16.2 nM. This IC50 and that of the molecule before are within 1.5-fold of each other.
To `O=C(N1CC(Oc2cnc(Cl)c(C3CC3)c2)C1)N1CC2(CC(n3cnc(C4CC4)n3)C2)C1` [Example 254, [3-[(6-chloro-5-cyclopropyl-3-pyridyl)oxy]azetidin-1-yl]-[6-(3-cyclopropyl-1,2,4-triazol-1-yl)-2-azaspiro[3.3]heptan-2-yl]methanone] belongs 17 nM.
